# From patent US8558016B2, “Polyphenol derivative and method for producing the same” (Kabaushiki Kaisha Riverson, priority 2009, dated 2013)
# What was measured:
# [1] = tested on: 3T3-L1 adipocytes; assay: Adiponectin secretion promoting effect, Western blotting of culture supernatant; assay type: cell-based; conditions: for adiponectin secretion promoting effect: in words, no time or concentration stated
# Protocol: (§1) 3T3-L1 adipocytes can be allowed to grow and maintained in a 5% CO2 environment in high-glucose DMEM containing 50 U/ml penicillin, 50 μg/ml streptomycin, and 10% FCS. The 3T3-L1 cells were subcultured in a dish of 3.5 cm in diameter until confluent and then sufficiently differentiated into adipocytes by culture for another 2 days in the presence of insulin (10 μg/ml), dexamethasone ([…]), and IBMX (3-isobutyl-1-methylxanthine) (0.5 mM). Teadenol A (10 μM) or DMSO (vehicle control) was added to the sufficiently differentiated 3T3-L1 adipocytes, and each culture supernatant was collected after 8, 24, 32, and 48 hours. The amount of adiponectin secreted was determined by Western blotting method.
# [2] = tested on: PTP1B; assay: PTP1B expression inhibitory effect in 3T3-L1 adipocytes, Western blotting; assay type: cell-based; conditions: for PTP1B expression inhibitory effect: in words, no time or concentration stated
# Protocol: as §1
# Teadenol A (10 μM) or DMSO (vehicle control) was added to the sufficiently differentiated 3T3-L1 adipocytes. After culture for 8, 24, 32, and 48 hours, the cells were collected, and the amount of PTP1B […] and the amount of α-tubulin were determined by Western blotting method.
# [3] = Test of visceral fat and adiponectin functions (method not described); assay type: in vivo; conditions: in words
structure (smiles),measurement,setting,value
"C=C1C=C(C(=O)O)O[C@@H]2Cc3c(O)cc(O)cc3O[C@H]12 [Teadenol A, teadenol A]",adiponectin secretion promoting activity,"[1]; 10 μM, 3T3-L1 adipocytes, statistically significant difference after 24 and 48 hours",effective
same,PTP1B expression inhibitory activity,"[2]; 10 μM, 3T3-L1 adipocytes, statistically significant difference after 32 hours",effective
same,adiponectin,[3],increasing adiponectin
same,visceral fat,[3],decreasing visceral fat
"C=C1C=C(C(=O)O)O[C@@H]2Cc3c(O)cc(O)cc3O[C@@H]12 [Teadenol B, teadenol B]",adiponectin secretion promoting effect,[1],effective
same,PTP1B expression inhibitory effect,[2],effective
C=C1C=C(C(=O)O)O[C@@H]2Cc3c(O)cc(O)cc3OC12 (some centres unmarked) [compound (1)],adiponectin secretion promoting effect,[1],confirmed to have
same,PTP1B expression inhibitory effect,[2],confirmed to have
